Test system: microbial growth in solutions of sugar
Assay: Microbial contamination control procedure: dissolved oxygen and pH monitoring of solutions of sugars after adding a sterilisation agent
Experimental: The process described is based upon the Fiberight industrial scale process, modified for a 1 litre reaction vessel. The amount of organic substrate used in the process is dependent on the required total solids (TS) content of the process. Typically, TS will be between 5-25%. TS is calculated using the required reaction mass and the solids content of the organic substrate, which is typically between 10-70%. (For a reaction mass of 1 kg, with a required TS of 8% (w/w), using organic substrate with a solids content of 32% (w/w), the amount of organic substrate needed for the process is 250 g). The organic substrate is sterilised in an autoclave at 125° C. for 1 hour immediately prior to use.
The reaction vessel is sterilised prior to use by filling with […] and stirring for 1 hour. The ethanol is then drained and the heating jacket set to 50° C. prior to addition of the reaction components (water, organic substrate, and enzyme).
The organic substrate is added to a preheated reaction vessel (50° C.) in one portion followed by sterilised water (the mass of water required=total reaction mass−mass of organic substrate) and stirred at between 200-600 RPM, depending on TS (higher TS requires a higher RPM to ensure thorough mixing). […] DO readings are taken throughout the process and are typically between 3-8 mg/L if no contamination is present. […] Typically this stops after T=3 hours and maintains linear readings. If contamination occurs the DO reading can drop to 0 mg/L, which typically happens between T=5-8 hours. […]
Several sterilisation agents have been tested to determine their effectiveness in controlling microbial growth in solutions of sugar. The sterilisation agents were either introduced at T=0 or at the point that microbial growth is observed, which can be measured by the DO sensor. Typically, contamination can be said to occur when the DO reading starts to drop exponentially, eventually reaching 0 mg/L if no sterilisation agent is added. In these tests, software was used to monitor the DO readings and trigger the addition of an antimicrobial. […]

## [O][Cl+][O-] [chlorine dioxide]
0.05 wt % added at T=5 hrs 45 mins, T=50 hrs 30 mins and T=73 hrs 30 mins, FIG. 7
  dissolved oxygen and pH levels / microbial growth: stabilise dissolved oxygen and pH levels, thereby preventing further microbial growth
0.35 wt % added at T=8 hrs 45 mins in a single aliquot, FIG. 6
  dissolved oxygen and pH levels / microbial growth: stabilise dissolved oxygen and pH levels, thereby preventing further microbial growth
Added in response to the drop in dissolved oxygen, FIGS. 6 and 7
  pH drop (evidence of lactic acid production): prevented

— patent US11965219B2, “Process and apparatus for reduction in microbial growth in solutions of sugars extracted from waste materials” (UNIVERSITY OF LEEDS, priority 2018, dated 2024)
